# Test system: Rattus norvegicus
# Settings: oral
# [1] = short-term, duration: 28 days, gavage, M, Sprague-Dawley, Clinical Observation: Salivation Dark green urinelocomotor activity decrease, Staining around nose and mouth + Functional Observational …
# [2] = subchronic, gavage, M, Sprague-Dawley, Clinical Observation: Respiratory noise Irregular respiration Deep respiration R Soiled perigenital region R Oligo-stool R Hypothermia R + …
# [3] = subchronic, gavage, M, Sprague-Dawley, Clinical Observation: Salivation + Urinalysis: Tubular epithelial cell in sediment + Hematology: PT increase, APTT increase + Blood …
# [4] = subchronic, gavage, M, Sprague-Dawley, Deaths + Clinical Observation: Salivation + Body Weight Changes: Body weight gain decrease + Food Consumption: decrease + Urinalysis: Brown …
# [5] = short-term, duration: 28 days, gavage, M, Sprague-Dawley, Clinical Observation: Locomotor activity decrease, Respiratory rate decrease, Incomplete eyelid opening + Blood Chemistry: TG decrease + …
# [6] = chronic, duration: 17 weeks, gavage, F, Ash/CSE, Body Weight Changes: decrease
# [7] = chronic, duration: 17 weeks, gavage, M, Ash/CSE, Body Weight Changes: decrease
# [8] = short-term, duration: 28 days, gavage, F, Wistar, Deaths + Clinical Observation: Thinly haired areas of skin Weakness Thin appearance Respiratory disorders Some resistance to dosing + Body …
# [9] = short-term, duration: 28 days, gavage, M, Wistar, Deaths + Clinical Observation: Thinly haired areas of skin Weakness Thin appearance Respiratory disorders Some resistance to dosing + Body …
structure (smiles),measurement,setting,value
"ClC(COCC(Cl)C(Cl)(Cl)Cl)C(Cl)(Cl)Cl (stereo not drawn) [Bis(2,3,3,3-tetrachloropropyl) ether]",NOEL,"subchronic, gavage, M/F, Wistar, Clinical Observation: Lethargy + Body Weight Changes: decrease + Urinalysis: Ketone body increase, TP increase + Hematology: Hgb decrease, …",40 mg/kg-day
"CCCCCc1ccc2c(c1)C(=O)c1ccccc1C2=O [9,10-Anthracenedione, 2-pentyl-]",NOEL,"short-term, duration: 28 days, gavage, F, Sprague-Dawley, Clinical Observation: Salivation (transient) + Hematology: RBC decrease, PT increase + Absolute Organ Weight: Liver increase + Relative …",15 mg/kg-day
NC1=CC(=O)C(N=Nc2ccc(Nc3ccc(N=Nc4c(S(=O)(=O)[O-])cc5c(c4N)C(=O)C(N=Nc4ccccc4)C(S(=O)(=O)[O-])=C5)cc3S(=O)(=O)[O-])cc2)C=C1.[Na+].[Na+].[Na+] (stereo not drawn),NOEL,"short-term, duration: 28 days, gavage, M/F, Hematology: MET-HGB increase, RET increase, RBC decrease, HGB decrease, MCHC decrease, MCV increase, PCV decrease, MCH increase, HEINZ …",< 50 mg/kg-day
"Cl.Cl.Nc1ccc(O)c(N)c1 [2,4-Diaminophenol dihydrochloride]",NOAEL,[1],50 mg/kg-day
same,NOEL,[1],< 50 mg/kg-day
same,NOEL,"subchronic, duration: 13 weeks, gavage, M/F, Fischer 344, Deaths + Body Weight Changes: decrease>50 + Absolute Organ Weight: Liver increase, Thymus decrease + Relative Organ Weight: Right kidney …",< 12 mg/kg-day
O=C(O)c1cccnc1Cl [3-Carboxy-2-chloropyridine],NOEL,"short-term, duration: 28 days, gavage, M/F, Clinical Observation: Alopecia Salivation + Blood Chemistry: GOT increase, GPT increase, ALP increase, BUN increase + Necropsy: Liver - …",10 mg/kg-day
"Cc1ccc(S(=O)(=O)O)c(C)c1 [2,4-Dimethylbenzenesulfonic acid]",LOEL,[2],500 mg/kg-day
same,NOEL,[2],100 mg/kg-day
"ClCCCCCCCCCl [Octane, 1,8-dichloro-]",NOEL,"short-term, duration: 28 days, gavage, M/F, Sprague-Dawley, Deaths + Clinical Observation: Salivation + Functional Observational Battery: Grip strength (forelimb) decrease, Grip strength (hindlimb) …",< 40 mg/kg-day
"CC(CN1CCOCC1)OCCN1CCOCC1 (stereo not drawn) [Morpholine, 4-[2-[1-methyl-2-(4-morpholinyl)ethoxy]ethyl]-]",NOEL,"short-term, duration: 28 days, gavage, M/F, Clinical Observation: Salivation Ptosis Reddish pinna Swelling of pinna + Body Weight Changes: Body weight gain decrease + Food Consumption…",< 8 mg/kg-day
Br.CN1[C@@H]2CC(OC(=O)[C@H](CO)c3ccccc3)C[C@H]1[C@@H]1O[C@@H]12.O.O.O (stereo partly drawn) [Scopolamine hydrobromide trihydrate],NOEL,"chronic, duration: 14 weeks, gavage, M/F, Fischer 344, Deaths + Clinical Observation: Pupillary dilation Reddening of eyes Hypoactivity + Body Weight Changes: decrease + Hematology: Hgb increase…",< 15 mg/kg-day
CCC(C)=NO[Si](C)(ON=C(C)CC)ON=C(C)CC [Methyltri(2-butanoneoximyl)silane],NOAEL,"short-term, duration: 28 days, gavage, M, Wistar, Functional Observational Battery: Rearing decrease, Grip strength(fore and hind limb) decrease, Mean body temperature decrease + Body Weight…",10 mg/kg-day
CCCCCCCCOC(=O)CCc1cc(-n2nc3ccccc3n2)c(O)c(C(C)(C)C)c1,NOEL,"short-term, duration: 28 days, gavage, M/F, Body Weight Changes: Body weight gain decrease + Hematology: PT increase + Blood Chemistry: GOT increase, GPT increase, T-CHO increase, TG …",2 mg/kg-day
"FC(F)(F)c1cccc(C(F)(F)F)c1 [Benzene, 1,3-bis(trifluoromethyl)-]",NOAEL,[3],150 mg/kg-day
same,NOEL,[3],< 40 mg/kg-day
CC1(C)Oc2ccc(C#N)cc2[C@@H](N2CCCC2=O)[C@@H]1O [Levcromakalim],NOAEL,"chronic, duration: 91 days, diet, M/F, CD, Body Weight Changes: increase.3 + Food Consumption: increase.3 + Water Consumption: increase + Urinalysis: Volume increase Osmolality …",0.03 mg/kg-day
O=C1OC(=O)c2c(Cl)c(Cl)c(Cl)c(Cl)c21 [Tetrachlorophthalic anhydride],NOEL,"subchronic, gavage, M/F, Fischer 344, Deaths + Body Weight Changes: decrease + Blood Chemistry: gamma-GTP increase, Glu decrease + Absolute Organ Weight: Spleen decrease, Right …",< 94 mg/kg-day
Cc1ccc(O)c([N+](=O)[O-])c1 [4-Methyl-2-nitrophenol],NOAEL,"short-term, duration: 28 days, gavage, F, Sprague-Dawley, Clinical Observation: Sedation Ptosis Salivation Reddish tear Soiled perineal region + Urinalysis: Yellow colored urine pH decrease + …",60 mg/kg-day
same,NOEL,"short-term, duration: 28 days, gavage, M/F, Sprague-Dawley, Clinical Observation: Sedation Ptosis Salivation Reddish tear Soiled perineal region + Urinalysis: Yellow colored urine pH decrease + …",60 mg/kg-day
"Cl.Cl.Nc1ccc(Cc2ccc(N)cc2)cc1 [4,4'-Methylenedianiline dihydrochloride]",NOEL,"subchronic, duration: 13 weeks, water, M/F, Fischer 344, Body Weight Changes: decrease + Histopathology: Liver/bile duct- Hyperplasia Thyroid-Adenomatous goiter Thyroid-Follicullar-cell hyperplasia…",30.4 mg/kg-day
CC(C)(c1ccc(O)cc1)c1ccc(C(C)(c2ccc(O)cc2)c2ccc(O)cc2)cc1,NOEL,"short-term, duration: 28 days, gavage, M/F, Crj:CD, Hematology: Plt increase + Blood Chemistry: GPT increase, TG increase, Cho increase, TP decrease, LH decrease, , FSH decrease, Estradiol …",300 mg/kg-day
COc1cc(-c2ccc(N=Nc3c(S(=O)(=O)[O-])cc4cc(S(=O)(=O)[O-])cc(N)c4c3O)c(OC)c2)ccc1N=Nc1c(S(=O)(=O)[O-])cc2cc(S(=O)(=O)[O-])cc(N)c2c1O.[Na+].[Na+].[Na+].[Na+] [C.I. Direct Blue 15],NOEL,"subchronic, duration: 13 weeks, drinking water, F, Fischer 344, Deaths + Body Weight Changes: decrease + Water Consumption: decrease + Absolute Organ Weight: Kidney increase + Relative Organ Weight: …",380 mg/kg-day
same,NOEL,"subchronic, duration: 13 weeks, drinking water, M, Fischer 344, Deaths + Body Weight Changes: decrease + Water Consumption: decrease + Absolute Organ Weight: Kidney increase + Relative Organ Weight: …",< 190 mg/kg-day
COC(=O)CC(=O)OC [Dimethyl malonate],NOAEL,"subchronic, gavage, M, Wistar, Histopathology: Liver: Hypertrophy, hepatocyte",300 mg/kg-day
CC(=O)/C=C/C=C(\C)CCC=C(C)C [Pseudoionone],NOAEL,"short-term, duration: 28 days, gavage, M/F, Wistar Han, Clinical Observation: Salivation + Body Weight Changes: Weight gain decrease + Hematology: RBC increase, HCT increase, PLT increase, APTT …",50 mg/kg-day
CC(=O)N1CCN(c2ccc(OC[C@@H]3CO[C@@](Cn4ccnc4)(c4ccc(Cl)cc4Cl)O3)cc2)CC1 [Ketoconazole],NOEL,"short-term, duration: 28 days, gavage, M/F, Sprague-Dawley, Body Weight Changes: decrease + Blood Chemistry: ALT increase, Estrus cycle increase, T3 decrease, T4 decrease, TSH increase, Testosterone …",< 6.25 mg/kg-day
OCCOCCOCCO [Triethylene glycol],NOEL,"subchronic, duration: 13 weeks, diet, M/F, Fischer 344, Body Weight Changes: Mean body weight decrease, Body weight gain decrease + Urinalysis: Urinalysis', 'Volume increase, pH decrease + …",1920 mg/kg-day
"CCCCCCC[CH2][Sn]([Cl])([Cl])[Cl] [Stannane, trichlorooctyl-]",NOAEL,"subchronic, duration: 13 weeks, diet, M/F, Wistar, Blood Chemistry: ALP increase + Absolute Organ Weight: Thymus decrease + Relative Organ Weight: Thymus decrease + Histopathology: Thymus- …",9.6 mg/kg-day
same,NOAEL,"subchronic, duration: 13 weeks, diet, M/F, Wistar, Body Weight Changes: Mean body weight decrease + Food Consumption: decrease + Urinalysis: SG decrease + Hematology: HGB decrease, HCT …",< 2.88 mg/kg-day
"Clc1ccc(N=Nc2ccc(Cl)c(Cl)c2)cc1Cl [3,3',4,4'-Tetrachloroazobenzene]",NOEL,"subchronic, gavage, M/F, Fischer 344, Body Weight Changes: decrease + Hematology: Ret increase Hct decrease, Hgb decrease, RBC decrease, Plt decrease, WBC decrease, Seg decrease…",< 0.1 mg/kg-day
CCCCCCCC[N+](C)(C)Cc1ccccc1.[Cl-] [Benzyldimethyloctylammonium chloride],NOAEL,[4],15 mg/kg-day
same,NOEL,[4],15 mg/kg-day
C=CCOC(C)=O [Allyl acetate],NOEL,"subchronic, gavage, M/F, Fischer 344, Deaths + Body Weight Changes: decrease + Hematology: Hgb decrease, Plt increase, WBC increase + Blood Chemistry: TP decrease, Alb decrease, …",< 6 mg/kg-day
"[O-][N+](=Nc1ccc(Cl)c(Cl)c1)c1ccc(Cl)c(Cl)c1 [3,3',4,4'-Tetrachloroazoxybenzene]",NOEL,"subchronic, gavage, M/F, Fischer 344, Deaths + Body Weight Changes: decrease af>>>10 + Hematology: Plt decrease Hct decrease, Hgb decrease, RBC decrease Ret increase, WBC …",< 0.1 mg/kg-day
C[N+](C)(C)CC(=O)[O-] [Betaine],NOEL,"subchronic, diet, M/F, Sprague-Dawley, Food Consumption: decrease + Urinalysis: Urine volume increase,pH decrease + Hematology: Plt increase, Fib increase + Blood Chemistry: Alp …",< 1%
CC(CO)OC(C)CO.CC(O)COCC(C)O (stereo not drawn) [Dipropylene glycol],NOAEL,[5],1000 mg/kg-day
same,NOEL,[5],200 mg/kg-day
Nc1nc(N)nc(-c2cc(Cl)ccc2Cl)n1.O=C(O)/C=C\C(=O)O [Irsogladine maleate],NOEL,"chronic, duration: 91 days, gavage, M/F, Sprague-Dawley, Deaths + Clinical Observation: Piloerection Salivation Locomotor activity decrease, Decrease in reactivity Soiled fur Brownish urine Soiled …",3 mg/kg-day
Nc1cccc(Cl)c1 [3-Chloroaniline],NOEL,"subchronic, gavage, M/F, Fischer 344, Deaths + Clinical Observation: Bluish discoloration of the genital and footpad regions + Body Weight Changes: decrease + Hematology: Hct …",< 10 mg/kg-day
Nc1ccc(Cl)cc1[N+](=O)[O-] [4-Chloro-2-nitroaniline],NOEL,"subchronic, gavage, M, Sprague-Dawley, Hematology: Hct decrease, Ret increase + Relative Organ Weight: Heat increase, Liver increase, Kidneys increase, Adrenals increase + …",10 mg/kg-day
CC(C)CCO [Isopentyl alcohol],NOAEL,[6],1000 mg/kg-day
same,NOEL,[6],1000 mg/kg-day
same,NOAEL,[7],500 mg/kg-day
same,NOEL,[7],500 mg/kg-day
CCCCCCCCCCCCCCCCO [1-Hexadecanol],NOAEL,[8],300 mg/kg-day
same,NOEL,[8],300 mg/kg-day
same,NOAEL,[9],300 mg/kg-day
same,NOEL,[9],100 mg/kg-day
same,NOAEL,"short-term, duration: 28 days, gavage, Sprague-Dawley",1000 mg/kg-day
same,NOAEL,"subchronic, duration: 13 weeks, diet, F, Crl, Body Weight Changes: decrease2064 + Food Consumption: decrease2064 + Absolute Organ Weight: Brain2064 Heart LiverSpleen Gonad + Relative …",875 mg/kg-day
same,NOAEL,"subchronic, duration: 13 weeks, diet, M, Crl, Body Weight Changes: decrease2064 + Food Consumption: decrease2064 + Absolute Organ Weight: Brain2064 Heart LiverSpleen Gonad + Relative …",723 mg/kg-day
C#CC(C)(C)O [2-Methyl-3-butyn-2-ol],NOAEL,"short-term, duration: 28 days, gavage, M/F, BOB:WISW, Deaths + Clinical Observation: Sedation Narcosis Hypothermia + Body Weight Changes: decrease + Food Consumption: decrease + Hematology: WBC …",50 mg/kg-day
